Consider two compounds from article PMC6394990, “Detailed characterization of the solution kinetics and thermodynamics of biotin, biocytin and HABA binding to avidin and streptavidin” (PLoS ONE, 2019).

“And” between values parts separate entries of the source, which are not always exact repeats. Identical values can stand only once.

Common to all, as to type: physicochemical
Series [1] addresses T1, avidin (AV) (Gallus gallus, UniProt P02701).
T1 construct: purchased Calbiochem (La Jolla, CA)
In words: Fluorescence lifetimes, AV complex. The settings on record: for Lifetime τ: AV complex (AB1), 20°C, pH 8; for t (1), fluorescence lifetime: complex with AV, t for BFl and BcO, average lifetime for B-DNAds*Fl, in ns. The procedure:
(§1) The lifetimes (τ), steady state anisotropies (rss), time-resolved anisotropies (rt) and quantum yields (QY) of the complexes (at 20 ± 0.1°C and pH 8) were collected with a dye-labeled B7 probe concentration of 20–40 nM and 1040–2080 nM of either protein (AV or SAV) to ensure that only one binding site in the tetramer was filled with a ligand (AB1 filling model).
The lifetimes were collected in a FluoTime100 fluorescence spectrometer (PicoQuant, GmbH, Berlin, Germany) with the excitation light source provided by a picosecond pulsed diode laser (PicoQuant, GmbH, Berlin, Germany) at 470 nm and 20 MHz. The emission was collected at 520 nm through a non-fluorescing 520 nm interference filter (Oriel Corp., Stratford, CT) followed by a liquid filter of 1cm path length containing 24 mM acetate buffered dichromate at pH 4, between the sample and detector to eliminate traces of excitation light. The fluorescence decays were fit by a nonlinear least-squares minimization based on the Marquardt algorithm embedded in the Fluofit software (PicoQuant GmbH). Twenty-eight decays were collected per sample, the decays were grouped in four sets, consisting of seven sample decays and one Instrument Response Function, IRF, for deconvolution proposes. The decay sets were globally fitted to mono- or bi-exponential decay models that were discriminated using the statistical parameter χ^2. The rt data were acquired with the fluorimeter described above equipped with a polarizer and an analyzer to acquire the parallel VV(t) and perpendicular VH(t) decays. The PicoQuant G factor was calculated according to: G = ∫HV(t)dt/∫HH(t)dt, where HV(t) and HH(t) were the decays collected with the emission polarizer selecting vertical and horizontal E-vector passing orientations, respectively, and the excitation polarizer set at horizontally position.

Series [2] concerns the target T2, streptavidin (SAV) (Streptomyces avidinii, UniProt P22629).
T2 construct: purchased Sigma Aldrich (St. Louis, MO)
Put plainly: Time-resolved anisotropy, cone angle, SAV complex. The settings on record: complex with SAV. The procedure: as §1
The lifetimes were collected in a FluoTime100 fluorescence spectrometer (PicoQuant, GmbH, Berlin, Germany) with the excitation light source provided by a picosecond pulsed diode laser (PicoQuant, GmbH, Berlin, Germany) at 470 nm and 20 MHz. […] The fluorescence decays were fit by a nonlinear least-squares minimization based on the Marquardt algorithm embedded in the Fluofit software (PicoQuant GmbH). […] The PicoQuant G factor was calculated according to: G = ∫HV(t)dt/∫HH(t)dt, where HV(t) and HH(t) were the decays collected with the emission polarizer selecting vertical and horizontal E-vector passing orientations, respectively, and the excitation polarizer set at horizontally position. […]
In a simple model, the transition moment is assumed to wobble within a cone of semi-apical angle Ω [59], where the cone axis is normal to the surface of a sphere that corresponds to the macromolecule. The angle Ω is calculated from Eq 14.

The target of series [3] is T2, streptavidin (SAV). Put plainly: Steady-state anisotropy (rss), SAV complex. The settings on record: for Steady State Anisotropy rss: SAV complex (AB1), 20°C; for SAV-increment (%): increase of rss against unbound; for rss, + SAV: steady-state anisotropy. The procedure:
as §1
The rss measurements were collected using the Giblin-Parkhurst modification of the Wampler-Desa method as described previously. The fluorescence signal was detected in a model A-1010 Alphascan fluorimeter (Photon Technologies, Inc., Birmingham, NJ) equipped with an R928 PMT (Hamamatsu, Bridgewater, NJ). The excitation was provided by an Ar^+ ion laser (Coherent Innova 70–4 Argon, Santa Clara, CA) at 488 nm and 5–10 mW of power incident on the sample. A photoelastic modulator (PEM-80; HINDS International, Inc., Portland, OR) was placed between the laser source and the sample compartment with a retardation level of 1.22π, and the PEM stress axis orientated 45° with respect to the E vector of the laser beam. Two signals were acquired with the PEM alternating between “on” and “off” positions for 10 seconds and the data fitted to a least squared straight line to minimize noise. A minimum of six of these independent measurements were averaged to acquire the rss values. The fluorimeter G factor was determined using a film polarizer and analyzer with an excitation at 488 nm provided by a xenon arc lamp (model A1010, Photon Technologies Inc, Princeton, NJ). The dissociation reactions of dye-labeled B7 and protein complexes were monitored by fluorescence changes and were also collected in the fluorimeter described above.

Series [4] has as its target T2, streptavidin (SAV). In words: Quantum yields (QY), SAV complex. The settings on record: for dQY-SAV: fractional change of QY, SAV complex against dye. The procedure: as §1
(§2) The QY values were obtained by using a reference fluorophore of known quantum yield and were calculated according to Parker and Rees, where the reference dye was fluorescein in 0.1N sodium hydroxide solution [46]. The emission fluorescence scans were collected from 480 nm to 700 nm with the excitation light set at 460 nm provided by the xenon arc lamp described above. These measurements were made on the AB1 complexes at high protein concentration.

The nature of series [5]: Intrinsic lifetime, dynamic quantum yield and fraction of non-statically quenched molecules, unbound probe. The note with it: for t° (2), intrinsic lifetime of the fluorescence dye: in ns; for 1-S (4) = QY/F, fraction of non-statically quenched molecules / F (3) = Sat/t° / S: unbound dye.
A short description of series [6]: Absorbance and fluorescence emission spectra, unbound probe. The note with it: unbound dye. The procedure: as §1, §2
Supplementary file pone.0204194.s001.docx: S1 Fig Absorbance spectra of dye-labeled B7 probes and respective complexes with AV and SAV. […] The spectra are normalized to the calculated molar absorptivies. […] The labeled probes and protein concentrations were 1 μM and 10 μM, respectively. (DOCX) Click here for additional data file.
Supplementary file pone.0204194.s002.docx: S2 Fig Fluorescence emission spectra of dye-labeled B7 and respective complexes with AV and SAV. […] The probe and protein concentrations were 20 nM and 1040 nM (AB1 filling model), respectively. (DOCX) Click here for additional data file.

The target of series [7] is T1, avidin (AV). In words: Quantum yields (QY), AV complex. The note with it: for Quantum Yield QY: AV complex (AB1); for dQY-AV: fractional change of QY, AV complex against dye. The procedure:
as §1, §2

T2 sequence (P22629 25-183): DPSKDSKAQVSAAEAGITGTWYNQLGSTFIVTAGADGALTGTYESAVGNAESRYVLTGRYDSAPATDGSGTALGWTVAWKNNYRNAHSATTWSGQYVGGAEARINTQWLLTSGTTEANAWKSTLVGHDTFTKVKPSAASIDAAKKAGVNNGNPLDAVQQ
T1 sequence (P02701 25-152): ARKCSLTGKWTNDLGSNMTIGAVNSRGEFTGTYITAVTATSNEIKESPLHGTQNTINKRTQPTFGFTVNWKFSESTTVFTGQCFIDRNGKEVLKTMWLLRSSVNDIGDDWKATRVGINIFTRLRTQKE

On to `NC(CCCCNC(=O)CCCC[C@@H]1SC[C@@H]2NC(=O)N[C@@H]21)C(=O)NCCCCCNC(=O)c1ccc(-c2c3cc(F)c(=O)cc-3oc3cc(O)c(F)cc23)c(C(=O)O)c1` (stereo partly drawn) [BcO, Oregon green 488 Biocytin], for which, on avidin (AV) [1], the “Lifetime τ” value is on record as 4.35 ± 0.01 ns and the “t (1), fluorescence lifetime” value turned out to be 4.35 ± 0.01. At streptavidin (SAV) [2], this compound returned a W of 50. At streptavidin (SAV) [3], the “Steady State Anisotropy rss” value was determined as 0.053 ± 0.005; the “SAV-increment (%)” value turned out to be 130.4%; the “rss, + SAV” value came out at 0.053. Moreover, at streptavidin (SAV) [4] (SAV complex (AB1)), the “Quantum Yield QY” value amounted to 0.21 ± 0.01. The QY on streptavidin (SAV) [4] (complex with SAV) was 0.21 ± 0.01 and 0.21. Also, the dQY-SAV at streptavidin (SAV) [4] is given as -0.7692. Also, in series [5], the “t° (2), intrinsic lifetime of the fluorescence dye” value was found to be 4.4 ± 0.1; the “1-S (4) = QY/F, fraction of non-statically quenched molecules” value was 1 and 1.00 ± 0.02; the “F (3) = Sat/t°” value is given as 0.85 ± 0.02; the S worked out at 0. Besides, in series [6], the “Abs (nm)” value was 495 nm and the “Emission (nm)” value stood at 523 nm. Moreover, at avidin (AV) [7], the “Quantum Yield QY” value stood at 0.62 ± 0.02 and the dQY-AV is recorded as -0.3187. The QY at avidin (AV) [7] (complex with AV) is 0.62 and 0.62 ± 0.02.

On to `O=C(CCCC[C@@H]1SC[C@@H]2NC(=O)N[C@@H]21)NCCNC(=O)c1ccc(-c2c3ccc(=O)cc-3oc3cc(O)ccc23)c(C(=O)O)c1` [BFl, Biotin-4-fluorescein], for which, on avidin (AV) [1], the “Lifetime τ” value is recorded as 4.22 ± 0.01 ns and the “t (1), fluorescence lifetime” value is on record as 4.22 ± 0.01. The W at streptavidin (SAV) [2] turned out to be 51. Further, at streptavidin (SAV) [3], the “Steady State Anisotropy rss” value is 0.171 ± 0.008; the “SAV-increment (%)” value worked out at 714.3%; the “rss, + SAV” value is on record as 0.171. In addition, at streptavidin (SAV) [4] (complex with SAV), the “488, correction, absR/abs” value is given as 1.708; the QY is 0.11 and 0.11 ± 0.01; the “QY multiplied by the 488 correction absR/abs” value was found to be 0.1879. The compound also yielded a dQY-SAV at streptavidin (SAV) [4] of -0.7885. In series [5], the “t° (2), intrinsic lifetime of the fluorescence dye” value was 5.2 ± 0.2; the “1-S (4) = QY/F, fraction of non-statically quenched molecules” value is 0.65 (2×) and 0.65 ± 0.06; the “F (3) = Sat/t°” value turned out to be 0.81 ± 0.04; the S stood at 0.35. Further, in series [6], the “Abs (nm)” value was 494 nm and the “Emission (nm)” value was found to be 530 nm. For the same compound, on avidin (AV) [7], the “Quantum Yield QY” value is listed as 0.44 ± 0.01 and the dQY-AV is recorded as -0.1538. Moreover, at avidin (AV) [7] (complex with AV), the “488, correction, absR/abs” value was determined as 1.171; the QY is 0.44 and 0.44 ± 0.01; the “QY multiplied by the 488 correction absR/abs” value worked out at 0.5154.
